In ChEMBL document CHEMBL1135877, “Neurotrophic activity of honokiol on the cultures of fetal rat cortical neurons” (2002):

Columns and labels:
Assay type in all cases: functional
[1] = species on record: Rattus norvegicus; assay: Compound was tested at 0.01 uM concentration for neurotrophic activity on cultures of E 18 SD rat cortical neurons
[2] = species on record: Rattus norvegicus; assay: Compound was tested at 0.1 uM concentration for neurotrophic activity on cultures of E 18 SD rat cortical neurons
[3] = species on record: Rattus norvegicus; assay: Compound was tested at 1 uM concentration for neurotrophic activity on cultures of E 18 SD rat cortical neurons
[4] = species on record: Rattus norvegicus; assay: Compound was tested at 10 uM concentration for neurotrophic activity on cultures of E 18 SD rat cortical neurons
[5] = species on record: Rattus norvegicus; assay: Compound was tested at 100 uM concentration for neurotrophic activity on cultures of E 18 SD rat cortical neurons

`C=CCc1ccc(O)c(-c2ccc(O)c(CC=C)c2)c1` [HONOKIOL] gave a Control [1] of 95.6%, a Control [2] of 106% and a Control [3] of 113%. For the same molecule, the Control [4] was 143% and the Control [5] was 29.7%.
